Results on one compound are retold here after patent US4447419A, “Thiazole derivative, and pharmaceutical compositions containing it” (Ausonia Farmaceutici s.r.l., priority 1981, dated 1984).

Data set [1] relates to hepatic damage caused by α-naphtyl-isothiocyanate. Kind of data set: Intoxication by α-naphtyl-isothiocyanate. The class given is in vivo. As to conditions: rat, contemporary oral treatment, 8 days α-naphtyl-isothiocyanate. An excerpt:
The hepatic damage caused by 8 days prolonged administration of α-naphtyl-isothiocyanate causes in the rate impairments in respect of cellular proliferation and hypertrophy of periportal spaces.

The target in data set [2] is T1, angiotensin converting enzyme (ACE) (Homo sapiens, UniProt P12821).
T1 construct: The plasma ACE has been determined by the method of Summary et al; from tissue; host or cells: normal human serum
Briefly: In vitro inhibition of plasma ACE in normal human serum (method of Summary et al.). The class given is biochemical. To be noted: for ACE activity: control 30; for % Enzymatic activity: control 100. More on the design: ID50 (ACE inhibition): unit not given here. Here is the method: The plasma ACE has been determined by the method of Summary et al. (Clin. Sci. 50, 321, 1976) using histidyl-glycyl-histidine as a substrate.
Tests have been carried out with 20 ml of normal human serum.
A 0.1 M aqueous solution of MR 729 has been used.

Data set [3] addresses T2, rat hepatic glutathione-peroxidase (GSH-P) (Rattus norvegicus, UniProt P04041).
T2 construct: rat hepatic glutathione-peroxidase (GSH-P); from tissue; host or cells: rat liver
T2 sequence (P04041 1-201): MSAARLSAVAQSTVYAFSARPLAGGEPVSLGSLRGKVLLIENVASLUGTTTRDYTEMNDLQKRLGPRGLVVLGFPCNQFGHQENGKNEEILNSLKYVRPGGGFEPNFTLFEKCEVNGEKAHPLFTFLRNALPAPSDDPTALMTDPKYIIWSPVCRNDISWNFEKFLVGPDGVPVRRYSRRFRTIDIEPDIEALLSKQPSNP
Kind of data set: In vitro inhibition of glutathione-peroxidase (glutathione/NADPH/GSH-reductase/cumene hydroperoxide system). The class given is biochemical. To be noted: concentration 0.025 mM. Here is the method: On the ground of these considerations and considering the above described pharmacological results, it has been assessed the efficacy of MR 729 in inhibiting in vitro the rat hepatic glutathione-peroxidase (GSH-P).
It has been used the system glutathione/NADPH/GSH-reductase/cumene hydroperoxide. It was shown that MR 729 inhibits of about 63% the GSH-P, at a concentration of 0.025 mM. The administration of MR 729 allows therefore a saving of endogenous glutathione and a consequent decrease of free peroxides. Compound MR 729 can be administered by oral, parenteral, rectal, aerosolic route in various forms. The compositions below are described as an example: […]

Data set [4] concerns bronchial secretion. Kind of data set: In vivo mucolytic effect, sodium fluorescein method (Mawatari). To be noted: rat, 250 mg/kg intraperitoneal, 5 minutes before sodium fluorescein, determined after 30 minutes. As for the experimental part: The effect of MR 729 on bronchial secretion has been studied in the rat with the method of sodium fluorescein described by Mawatari (Kagoshima Daigakeu Igakeu Zasshi, 27, 561, 1976).
The product under study has been administered by intraperitoneal route 5 minutes before the solution of sodium fluoroscein, whose amount in the bronchial secretion has been determined after 30 minutes.

The test system of data set [5] is pig's lyophilized gastric mucine. Briefly: In vitro mucolytic effect (method of Scheffner). The source says:
It has been followed the method described by Scheffner (Ann. N.Y. Acad. Sci. 106, 298, 1963) using as a substrate pig's lyophilized gastric mucine.

Data set [6] concerns lipid infiltration experimentally induced by CCl4. Briefly: Intoxication by CCl4, liver lipids. As to conditions: 12 hours fasting rats, oral route at different doses 2 hours before CCl4, sacrificed after 20 hours. The format is in vivo. Here is the method: The study has been carried out on 12 hours fasting rats; MR 729 was administered by oral route at different doses 2 hours before carbon tetrachloride. The animals were sacrificed after 20 hours and the liver was removed for the determination of liver lipids.

The subject of data set [7] is time of hexobarbital induced sleep. Kind of data set: Hexobarbital induced sleep in rats intoxicated by carbon tetrachloride. The class given is in vivo. Here is the method: Since the length of barbiturates induced sleep can be considered directly related to the metabolism rate of these drugs by the liver, it seemed appropiate to assess the influence of MR 729 on the time of hexobarbital induced sleep in rats intoxicated by carbon tetrachloride.
MR 729 has been administered by oral route for 4 consecutive days, at different doses; the animals were then treated with CCl4 and, after 48 hours, with hexobarbital.

The subject of data set [8] is ethionine-induced hepatic lipidic infiltration. Kind of data set: Intoxication by ethionine. As to conditions: rat, daily oral administration during the 8 days preceding ethionine. The format is in vivo. An excerpt:
Also ethionine administration causes in the rat hepatic damages with respect to hepatocytes, occurring as a massive lipidic infiltration.

Data set [9] relates to liver regeneration. Kind of data set: Liver regeneration in partially hepathectomized rats. The class given is in vivo. To be noted: treated just after operation, assessed after 4 days. An excerpt: This study aimed to evidence whether MR 729 could affect the liver regeneration in partially hepathectomized rats.
The animals have been treated with the product under study just after their operation; the regeneration degree has been assessed after 4 days.

Data set [10] is described as follows: Acute toxicity after single intraperitoneal administration. As to conditions: mouse, in vivo, ip, mice, 95% confidence limits 307-478. An excerpt: The toxicity of MR 729 after single administration has been studied in mice, by injecting the product at different doses by the intraperitoneal route.
Setting [11] is: MR 729 20 μl (0.1 M aqueous solution).
Where [12] appears, read: MR 729 50 μl (0.1 M aqueous solution).
Where [13] appears, read: MR 729 100 μl (0.1 M aqueous solution).

T1 sequence (P12821 30-1232 limits assumed): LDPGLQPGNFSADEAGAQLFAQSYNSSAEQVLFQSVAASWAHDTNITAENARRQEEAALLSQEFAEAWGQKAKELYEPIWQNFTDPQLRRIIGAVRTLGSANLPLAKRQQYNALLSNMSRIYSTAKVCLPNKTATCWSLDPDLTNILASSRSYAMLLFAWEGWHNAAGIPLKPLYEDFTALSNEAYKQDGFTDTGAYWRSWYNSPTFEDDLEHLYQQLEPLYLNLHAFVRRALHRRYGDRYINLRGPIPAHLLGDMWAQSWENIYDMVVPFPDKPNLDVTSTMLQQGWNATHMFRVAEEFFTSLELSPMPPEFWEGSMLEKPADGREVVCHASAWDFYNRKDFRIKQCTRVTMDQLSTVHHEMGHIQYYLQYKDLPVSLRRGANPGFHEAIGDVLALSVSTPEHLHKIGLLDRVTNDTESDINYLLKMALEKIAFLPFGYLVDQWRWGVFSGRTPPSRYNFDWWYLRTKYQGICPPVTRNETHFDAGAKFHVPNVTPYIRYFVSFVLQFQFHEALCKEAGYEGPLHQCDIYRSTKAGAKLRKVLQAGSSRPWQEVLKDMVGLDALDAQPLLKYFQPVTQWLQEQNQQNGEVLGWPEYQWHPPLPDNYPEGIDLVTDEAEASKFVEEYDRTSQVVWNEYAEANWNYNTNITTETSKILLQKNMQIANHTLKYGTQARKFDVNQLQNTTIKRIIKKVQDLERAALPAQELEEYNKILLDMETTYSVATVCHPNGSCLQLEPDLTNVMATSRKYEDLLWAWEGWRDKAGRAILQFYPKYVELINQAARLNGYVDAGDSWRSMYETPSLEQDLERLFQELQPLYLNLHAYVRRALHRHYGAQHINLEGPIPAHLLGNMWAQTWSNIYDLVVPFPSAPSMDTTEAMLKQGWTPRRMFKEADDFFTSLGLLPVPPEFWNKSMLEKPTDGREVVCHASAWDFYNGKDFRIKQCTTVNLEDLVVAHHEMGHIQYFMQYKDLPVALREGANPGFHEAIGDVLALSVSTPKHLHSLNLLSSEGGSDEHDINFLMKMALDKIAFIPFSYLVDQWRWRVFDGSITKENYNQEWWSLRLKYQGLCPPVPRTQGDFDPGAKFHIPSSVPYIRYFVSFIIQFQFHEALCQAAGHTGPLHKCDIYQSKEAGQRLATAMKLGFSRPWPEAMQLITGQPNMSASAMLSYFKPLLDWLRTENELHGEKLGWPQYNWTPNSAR

Turning to `CC(S)C(=O)NCC(=O)N1CSCC1C(=O)O` (stereo not shown) [MR 729, 3-[N-(2-mercapto-propionyl-amino-acetyl)]-tetrahydro-thiazolyl-4-carboxylic acid], in data set [1], the “Histological examination of biliary ducts and parenchyma” value was “structure of biliary ducts in the treated animals was practically unchanged”; the “Inhibition of hepatic pathology caused by α-naphtyl-isothiocyanate” value was “inhibits the development of such pathology”. Also, in data set [2] (setting [11]), the ACE activity came out at 9 nmol/10 min/20 μl and the “% Enzymatic activity” value is listed as 30%. In addition, in [2] (setting [12]), the ACE activity is listed as 7 nmol/10 min/20 μl and the “% Enzymatic activity” value was 23%. Besides, in data set [2] (setting [13]), the ACE activity worked out at 3 nmol/10 min/20 μl and the “% Enzymatic activity” value stood at 10%. Moreover, in [2] (in vitro, normal human serum, 0.1 M aqueous solution of MR 729), the “ID50 (ACE inhibition)” value is 60. The inhibition at 25 µM in [3] is roughly 63%. In [4], the “Bronchosecretolytic activity relative to carboxymethylcysteine 500 mg/kg i.p.” value was “fivefold higher activity”. In [5] (pig gastric mucine, according to the considered dose), the Decrease of viscosity was 17-35%. The “Mucolytic activity higher than equiponderant doses of N-acetyl-S-cysteine” value in data set [5] (same experimental conditions, according to the doses) was 35-50%. Also, the “Inhibition of liver lipid infiltration induced by CCl4” value in data set [6] is given as “able to inhibit, in a dose-dependent way, the lipid infiltration”. The Sleeping times result in data set [7] (oral 4 days, at highest doses) was “practically within normal limits”. Moreover, in [7] (oral route for 4 consecutive days at different doses, then CCl4, hexobarbital after 48 hours), the “Inhibition of CCl4-induced prolongation of hexobarbital sleeping time” value is reported as “inhibits the remarkable prolongation of sleeping time”. Besides, the “Antagonism of ethionine-induced hepatic lipidic infiltration” value in data set [8] is recorded as “effective in antagonizing, with a dose-related intensity, the establishment of this pathology”. Besides, the “Effect on liver regeneration” value in data set [9] is given as “acts in a positive way on the regeneration process, without however a clear dose-effect relationship”. Further, the LD50 in data set [10] is 395 mg/kg.
